# According to patent US9884813B1, “Pharmaceutically acceptable salts of B-guanidinopropionic acid with improved properties and uses thereof” (Rgenix, Inc., priority 2017, dated 2018):
# Values joined by “and” are separate entries in the source; they are usually repeats but may differ in a detail not shown here. Identical values can stand only once. “Also recorded” adds a separate entry of the source.
# Columns and labels:
# [1] = Solid form stability of salts in different solvents (slurry, XRPD); assay type: physicochemical; settings: water, 6 hours, room temperature
# [2] = as above; assay type: physicochemical; settings: 48 hours, room temperature
# Method: Three salts were studied for solid form stability in water (disproportionation test), methanol, acetonitrile, and acetone:water (9:1) for 48 hours at room temperature.
# [3] = Solid form stability at 40° C. and 75% humidity; assay type: physicochemical; settings: for solid form stability (XRPD): 40° C. and 75% RH for seven days
# Method: Solid form stability studies of β-GPA fumarate, succinate, and oxalate were carried out at 40° C. and 75% RH for seven days. Around 30 mg of the salts were placed in 4 mL vials which were placed in a saturated solution of sodium chloride (2 mL) with lids closed at 40° C. […]
# [4] = Solid form stability under stressed conditions (wet, dry, high humidity) by XRPD; assay type: physicochemical
# Method: The solid form stability of each salt was studied by XRPD under stressed conditions: wet, dry (45° C. under vacuum) and high humidity (RH >95%).
# [5] = Carr's index and Hausner ratio (predicted flowability); assay type: physicochemical; settings: Table 18, scale of Table 17
# [6] = Roller compaction feasibility (slugs, capsule fill)
# Method: Roller compaction feasibility was performed by producing slugs using a single station hand press then carefully hand milling those slugs so that all granules were small enough to pass through a size US 18 mesh. These granules were then filled into size 0 capsules by both the free flow and tamp method. A total of N=5 capsules were filled for each lot for each method. The average net fill weight results are given below in […]. The same issue was not seen when compressing the succinate salt form of β-GPA. Slugs produced around 1500 PSI produced slugs hard enough to be tested for hardness. The resulting slug parameters can be seen in Table 33.
# [7] = Compression profile evaluation (tabletability); assay type: physicochemical
# Method: Compression profiling was also performed on both the free base and the salt form of the API. A standard formulation containing plastic diluent, brittle diluent, disintegrant and lubricant was evaluated at a loading of 25% and 50% API. The diluent level was adjusted accordingly, but the ratio of plastic to brittle filler was set a 1:1. It was decided to use a representative tablet formulation to perform compression profiling to mitigate the cohesion and sticking issues seen in the free base and the salt form during the roller compaction feasibility evaluation. Table 37 details the formulation compositions tested.
# These blends were then compressed into 100 mg compacts using 0.25-inch flat faced tooling at increasing compaction pressures. A total of N=3 compacts were produced at each compaction pressure and were measured for weight, thickness and hardness. The compression stresses used were calculated by dividing the force applied to the compact by the surface area of the 0.25 in flat faced tooling. The tensile strength of the compacts was calculated using the equations derived for flat faced tablets. For each formulation, a tabletability (tensile strength vs. compression pressure) was generated. For the purposes of this study the tabletability profile was examined to determine the compaction pressure required in order to produce a tablet of acceptable tensile strength. Historically a tablet with a tensile strength of 2.0 Mpa is sufficient to both withstand friability and to not impact disintegration and dissolution.
# [8] = Carr's index and Hausner ratio (predicted flowability); assay type: physicochemical; settings: for Carr's index / Hausner ratio: calculated from bulk and tapped volumes; for Flow character: scale of Table 6 (Carr's index)
# From the text: The flow properties of β-GPA are sub-optimal. The bulk density is 0.389 g/cc and the tapped density is 0.627 g/cc. These measurements can be used to calculate the Carr's index and Hausner ratio for a substance. The Carr's index and Hausner ratio are indicators of flowability of a powder. As known in the art, e.g., as described in Carr R. L. Chem. Eng. 1965, 72, 163-168, the relationship to flowability of a powder to the Carr's index and Hausner ratio is based on the scale shown in Table 6 below.
# Carr's index or Carr's compressibility index (C) is an indication of the compressibility of a powder. It can be calculated using the equation below: Carr's index (C)=100(Vi−Vf)/Vi (3) A Carr's index greater than 25 is considered to be an indication of poor flowability while a value below 15 is an indication of good flowability.
# The Hausner ratio is a number that is correlated to the flowability of a powder or granular material. It is calculated by using the equation below: Hausner ratio=Vi/Vf (4)
# [9] = Dynamic vapor sorption (DVS) with XRPD of the post-DVS sample; assay type: physicochemical; settings: for solid form by XRPD after the DVS experiment: post DVS sample
# Method: Samples were analyzed using an Aquadyne DVS-2 gravimetric water sorption analyzer. The relative humidity was adjusted between 2-95% and the weight of the sample was continuously monitored and recorded.
# […]: β-GPA maleate (1:1) Form II, β-GPA fumarate (1:1), β-GPA maleate (2:1), β-GPA succinate (2:1) and β-GPA oxalate (1:1) were analyzed by DVS experiment followed by XRPD analysis of the sample at the end of the experiment.
# Sample 2162-64-1 was analyzed by DVS in triplicate and the post DVS samples were characterized by XRPD to identify the form at the end of the experiment.
# [10] = Bulk and tapped density; assay type: physicochemical
# Method: The bulk density of β-GPA oxalate (Pattern 18 B), succinate (Pattern 15A), and fumarate (Pattern 7A) were determined by pouring in a known amount of salt (g) into a measuring cylinder. The volume (Vi) occupied by the salt was recorded and the bulk density (ρB) was determined using equation 1. ρB=g/Vi (1)
# The tapped densities of the salts were determined using a Tap density analyzer. A known amount of salt was poured (g) into a measuring cylinder and the initial volume was recorded and tapped using a Tap density analyzer. The final volume (Vf) after tapping was recorded and the tapped density (ρT) was calculated by using equation 2. ρT=g/Vf (2)
# [11] = Flowability measurement using Hanson Flodex unit; assay type: physicochemical; settings: for flow character from the experimental data: summary of density and Flodex measurements
# From the text: Method: A cylindrical vessel is secured to the stand and above that a funnel is also secured such that the bottom of the funnel is close to the vessel. A powder load of ≈50-60 g is then poured through the funnel into the middle of the cylinder. The lever device is pulled to open the hole in the disk quickly and without vibration. If a powder slowly flows through the small-diameter holes, leaving a cavity shaped like an upside-down, truncated cone, the test is considered positive. If a powder flocculates in bulk and falls abruptly, forming a cylindrical cavity, the test is considered negative. […] If the experiment is negative, the powder is tested again with a disk having a larger hole.
# [12] = Dynamic vapor sorption (DVS) with XRPD of the post-DVS sample; assay type: physicochemical; settings: relative humidity between 0-95 percent
# [13] = Experiments on lyophilized 2:1 fumarate polymorph (Pattern 7C); assay type: physicochemical
# Method: 1 g of 2:1 β-GPA fumarate was dissolved in 10 mL of water at 50° C. in a round bottom flask. The round bottom flask was placed in the dry ice/acetone cooling bath (−78° C.) until the sample solidified followed by lyophilization for 48 hours. A white solid was obtained which was analyzed by XRPD, DSC and ^1H-NMR. Sample ID: 2162-84-1.
# To confirm the above hypothesis the following experiments (Table 25) were performed on the lyophilized sample (Pattern 7C): […]
# [14] = Average of 5 slugs, average Compression Force 1600.00 PSI (28.67 MPa)
# [15] = slug, Compression Force 1500 PSI, Compression Stress 27 MPa, listed as β-Guanidinopropionic Acid Succinate Salt
# [16] = slug, Compression Force 2000 PSI, Compression Stress 36 MPa
compound,measurement,setting,value
N=C(N)NCCC(=O)O.N=C(N)NCCC(=O)O.O=C(O)CCC(=O)O [β-GPA succinate (2:1)],XRPD pattern after slurry,[1],two peaks from β-GPA
same,XRPD pattern after slurry,[1]; listed as 2:1 β-GPA succinate,started showing up peaks from β-GPA
same,XRPD pattern after slurry,[2]; acetone:water (9:1),presence of β-GPA
same,XRPD pattern after slurry,[2]; acetonitrile,retain its original form
same,XRPD pattern after slurry,"[2]; acetonitrile, listed as 2:1 β-GPA succinate",retain its XRPD pattern
same,XRPD pattern after slurry,[2]; methanol,retain its original form
same,XRPD pattern after slurry,"[2]; methanol, listed as 2:1 β-GPA succinate",retain its XRPD pattern
same,solid form stability (XRPD),[3],retained their original XRPD pattern; also recorded: stable
same,solid form stability (XRPD),[3]; listed as 2:1 succinate salt,stable
same,Dry_XRPD pattern,[4]; dry (45° C. under vacuum),Pattern 15A
same,stability in dry conditions,[4]; dry conditions,stable
same,Humid_XRPD pattern,[4]; high humidity (RH >95%),Pattern 15A
same,stability under high humidity conditions,[4]; high humidity conditions,stable
same,Wet_XRPD pattern,[4]; wet,Pattern 15A
same,Flow character,[5],Good (11-15)
same,Calculated Solid Fraction,[6]; [14],0.80
same,Tablet Hardness,[6]; [14],4.86 kp
same,Tensile Strength,[6]; [14],0.34 MPa
same,Calculated Solid Fraction,"[6]; slug, Compression Force 1500 PSI, Compression Stress 27 MPa",0.79
same,Tablet Hardness,[6]; [15],5.1 kp and 3.7 kp and 4.4 kp and 4.3 kp
same,Tensile Strength,[6]; [15],0.35 MPa and 0.25 MPa and 0.30 MPa and 0.29 MPa
same,Calculated Solid Fraction,[6]; [16],0.85
same,Tablet Hardness,[6]; [16],6.8 kp
same,Tensile Strength,[6]; [16],0.50 MPa
same,compaction force required to produce a tablet of 2.0 Mpa tensile strength,[7]; 25% API loading formulation,22.7 kN
same,compression stress (compaction pressure) required to produce a tablet of 2.0 Mpa tensile strength,[7]; 25% API loading formulation,150 Mpa
same,compaction force required to produce a tablet of 2.0 Mpa tensile strength,[7]; 50% API loading formulation,~34.8 kN
same,compression stress (compaction pressure) required to produce a tablet of 2.0 Mpa tensile strength,[7]; 50% API loading formulation,~230 Mpa
same,Carr's index,[8],14.3
same,Hausner ratio,[8],1.167
same,Flow character,[8]; predicted,Good (11-15)
same,solid form by XRPD after the DVS experiment,[9],retained their XRPD
same,solid form by XRPD after the DVS experiment,[9]; listed as 2:1 succinate salt,no form change
same,solid form by XRPD after the DVS experiment,[9]; listed as 2:1 β-GPA succinate,no form change
same,Bulk density,[10],0.405 g/cc
same,Tapped density,[10],0.472 g/cc
same,Did solid pass?,[11]; Disc pore size 5 mm,No
same,Did solid pass?,[11]; Disc pore size 6 mm,No
same,Did solid pass?,[11]; Disc pore size 7 mm,Yes
same,Did solid pass?,[11]; Disc pore size 8 mm,Yes
same,Did solid pass?,[11]; Disc pore size 10 mm,Yes
same,Did solid pass?,[11]; Disc pore size 18 mm,Yes
same,Did solid pass?,[11]; Disc pore size 20 mm,Yes
same,Did solid pass?,[11]; Disc pore size 22 mm,Yes
same,Did solid pass?,[11]; Disc pore size 24 mm,Yes
same,flow character from the experimental data,[11],good
"N=C(N)NCCC(=O)O [β-GPA, β-Guanidinopropionic acid, reference compound]",degradation,[3]; 40° C. at 75% humidity after 4 weeks,No degradation was observed
same,Flow character,[5],Very very poor (>38)
same,calculated solid fraction of slugs,[6]; slugs produced using up to 2000 psi,74%
same,compression stress (compaction pressure) required to produce a tablet of 2.0 Mpa tensile strength,[7]; 25% API loading formulation,roughly 235 Mpa
same,compression stress (compaction pressure) required to produce a tablet of 2.0 Mpa tensile strength,[7]; 50% API loading formulation,incapable of reaching a tablet with 2.0 Mpa
same,Carr's index,[8],37.9
same,Hausner ratio,[8],1.610
same,Flow character,[8]; predicted,Very poor (32-37)
same,Flow character by Hausner ratio,"[8]; predicted, scale of Table 6 (Hausner ratio)",Very very poor (>1.60)
same,water uptake,[9]; 80% humidity at 25° C.,~0.3%
same,solid form by XRPD after the DVS experiment,[9],No change in the solid form
same,Bulk density,[10],0.389 g/cc
same,Tapped density,[10],0.627 g/cc
same,Did solid pass?,[11]; Disc pore size 18 mm,No
same,Did solid pass?,[11]; Disc pore size 20 mm,No
same,Did solid pass?,[11]; Disc pore size 28 mm,No
same,Did solid pass?,[11]; Disc pore size 30 mm,No
same,Did solid pass?,[11]; Disc pore size 34 mm,Yes
same,flow character from the experimental data,[11],poor
same,moisture absorbed and desorbed,[12],around 0.1%
N=C(N)NCCC(=O)O.N=C(N)NCCC(=O)O.O=C(O)/C=C/C(=O)O [Pattern 7C],stability of the polymorph,[13],unstable
